Experimental findings from patent publication US6451803B1, “N-acyl and n-aroyl aralkyl amides useful in treating seritonergic disorders” (Pfizer INC, priority 1998, dated 2002) are described below.

Broadly, the melting point is the temperature of the solid-liquid transition.

Molecules are shown by their SMILES.

As to `CN1CCN(c2ccccc2CCNC(=O)c2ccc(Cl)c(Cl)c2)CC1.Cl.O` (hydrate or solvate), the melting point lay within 110 to 120 °C.
